PMC5218480 (PLoS ONE, 2017)

System: MV-4-11 cells
Assay: Gene expression microarray analysis (Affymetrix PrimeView) and GSEA
Format: cell-based, human
Set-up: RFU PODN (11730768_x_at) / Fold change /veh PODN (11730768_x_at) / RFU LINC00158 (11744669_a_at) / Fold change /veh LINC00158 (11744669_a_at) / RFU DUSP10 (11751237_a_at) / Fold change /veh DUSP10 (11751237_a_at) / RFU ID3 (11757404_x_at) / Fold change /veh ID3 (11757404_x_at) / RFU PLEKHG5 (11737974_s_at) / Fold change /veh PLEKHG5 (11737974_s_at) / RFU LRRC4B (11730491_at) / Fold change /veh LRRC4B (11730491_at) / RFU GIMAP4 (11747438_a_at) / Fold change /veh GIMAP4 (11747438_a_at) / RFU KRT8 (11758183_x_at) / Fold change /veh KRT8 (11758183_x_at) / RFU CNN1 (11734310_a_at) / Fold change /veh CNN1 (11734310_a_at) / RFU VPS37D (11726825_at) / Fold change /veh VPS37D (11726825_at) / RFU C10orf10 (11716522_x_at) / Fold change /veh C10orf10 (11716522_x_at) / RFU KIR2DL2 /// KIR2DL4 /// KIR2DL5A /// KIR2DL5B /// KIR2DS1 /// KIR2DS2 /// KIR2DS3 /// KIR2DS4 /// KIR3DL3 /// KIR3DL3 /// KIR3DS1 (11738374_at) / Fold change /veh KIR2DL2 /// KIR2DL4 /// KIR2DL5A /// KIR2DL5B /// KIR2DS1 /// KIR2DS2 /// KIR2DS3 /// KIR2DS4 /// KIR3DL3 /// KIR3DL3 /// KIR3DS1 (11738374_at) / RFU C1QL1 (11718748_at) / Fold change /veh C1QL1 (11718748_at) / RFU TMPRSS4 (11747572_a_at) / Fold change /veh TMPRSS4 (11747572_a_at) / RFU HAMP (11756126_x_at) / Fold change /veh HAMP (11756126_x_at) / RFU RNFT2 (11725882_a_at) / Fold change /veh RNFT2 (11725882_a_at) / RFU NR4A2 (11747474_a_at) / Fold change /veh NR4A2 (11747474_a_at) / RFU ABCC12 (11746883_a_at) / Fold change /veh ABCC12 (11746883_a_at) / RFU TMEM136 (11760407_x_at) / Fold change /veh TMEM136 (11760407_x_at) / RFU CLDN22 /// WWC2 (11732394_at) / Fold change /veh CLDN22 /// WWC2 (11732394_at) / RFU HLA-DPB1 (11760878_x_at) / Fold change /veh HLA-DPB1 (11760878_x_at) / RFU SPINT1 (11716480_a_at) / Fold change /veh SPINT1 (11716480_a_at) / RFU GAP43 (11754022_s_at) / Fold change /veh GAP43 (11754022_s_at) / RFU A4GNT (11735810_at) / Fold change /veh A4GNT (11735810_at) / RFU PRB3 (11715151_x_at) / Fold change /veh PRB3 (11715151_x_at) / RFU TUBB4B (11761932_at) / Fold change /veh TUBB4B (11761932_at) / RFU CAPN14 (11732068_a_at) / Fold change /veh CAPN14 (11732068_a_at) / RFU TMCC2 (11721928_a_at) / Fold change /veh TMCC2 (11721928_a_at) / RFU IRGQ (11745062_a_at) / Fold change /veh IRGQ (11745062_a_at) / RFU FAM174B (11720279_a_at) / Fold change /veh FAM174B (11720279_a_at) / RFU TMPRSS4 (11748680_a_at) / Fold change /veh TMPRSS4 (11748680_a_at) / RFU FAM212B (11763350_a_at) / Fold change /veh FAM212B (11763350_a_at) / RFU PLEKHG5 (11743358_a_at) / Fold change /veh PLEKHG5 (11743358_a_at) / RFU ZSCAN30 (11745921_a_at) / Fold change /veh ZSCAN30 (11745921_a_at) / RFU CMKLR1 (11741424_a_at) / Fold change /veh CMKLR1 (11741424_a_at) / RFU LOC101060620 /// MAPK8IP1 (11723275_at) / Fold change /veh LOC101060620 /// MAPK8IP1 (11723275_at) / RFU SPTSSB (11747773_x_at) / Fold change /veh SPTSSB (11747773_x_at) / RFU PRSS12 (11739890_at) / Fold change /veh PRSS12 (11739890_at) / RFU BIN1 (11741810_x_at) / Fold change /veh BIN1 (11741810_x_at) / RFU WNT11 (11732464_a_at) / Fold change /veh WNT11 (11732464_a_at) / RFU C10orf10 (11716521_a_at) / Fold change /veh C10orf10 (11716521_a_at) / RFU C5orf56 (11738089_at) / Fold change /veh C5orf56 (11738089_at) / RFU CYB561 (11721691_x_at) / Fold change /veh CYB561 (11721691_x_at) / RFU ANKRD19P (11752326_a_at) / Fold change /veh ANKRD19P (11752326_a_at) / RFU OR2T12 /// OR2T33 /// OR2T8 (11738714_s_at) / Fold change /veh OR2T12 /// OR2T33 /// OR2T8 (11738714_s_at) / RFU VCAN (11748164_a_at) / Fold change /veh VCAN (11748164_a_at) / RFU JSRP1 (11732532_at) / Fold change /veh JSRP1 (11732532_at) / RFU KRTAP10-11 (11738290_x_at) / Fold change /veh KRTAP10-11 (11738290_x_at) / RFU MYO3A (11730013_a_at) / Fold change /veh MYO3A (11730013_a_at) / RFU EBF3 (11725865_a_at) / Fold change /veh EBF3 (11725865_a_at) / RFU CAMK2N1 (11719241_x_at) / Fold change /veh CAMK2N1 (11719241_x_at) / RFU C5orf56 (11738088_a_at) / Fold change /veh C5orf56 (11738088_a_at) / RFU OLFML3 (11715873_a_at) / Fold change /veh OLFML3 (11715873_a_at) / RFU LOC100653217 /// NTM (11731650_a_at) / Fold change /veh LOC100653217 /// NTM (11731650_a_at) / RFU MAPK11 (11762145_a_at) / Fold change /veh MAPK11 (11762145_a_at) / RFU FIZ1 (11724087_x_at) / Fold change /veh FIZ1 (11724087_x_at) / RFU OASL (11726364_x_at) / Fold change /veh OASL (11726364_x_at) / RFU SOX15 (11748057_x_at) / Fold change /veh SOX15 (11748057_x_at) / RFU CD79A (11719716_a_at) / Fold change /veh CD79A (11719716_a_at) / RFU HIST1H1D (11736915_at) / Fold change /veh HIST1H1D (11736915_at) / RFU CASKIN2 (11723855_a_at) / Fold change /veh CASKIN2 (11723855_a_at) / RFU LOC730098 (11760151_x_at) / Fold change /veh LOC730098 (11760151_x_at) / RFU OR4N2 (11742367_at) / Fold change /veh OR4N2 (11742367_at) / RFU PRRT2 (11749266_a_at) / Fold change /veh PRRT2 (11749266_a_at) / RFU SNX32 (11753110_a_at) / Fold change /veh SNX32 (11753110_a_at) / RFU CDHR5 (11726645_a_at) / Fold change /veh CDHR5 (11726645_a_at) / RFU RCAN1 (11760418_a_at) / Fold change /veh RCAN1 (11760418_a_at) / RFU FAM167A (11723789_a_at) / Fold change /veh FAM167A (11723789_a_at) / RFU FAM26E (11764081_at) / Fold change /veh FAM26E (11764081_at) / RFU ISYNA1 (11749810_s_at) / Fold change /veh ISYNA1 (11749810_s_at) / RFU ACY1 (11761880_at) / Fold change /veh ACY1 (11761880_at) / RFU 11764098_at / Fold change /veh 11764098_at / RFU SAMD14 (11745864_x_at) / Fold change /veh SAMD14 (11745864_x_at) / RFU NPB (11741838_a_at) / Fold change /veh NPB (11741838_a_at) / RFU TMPRSS6 (11731388_a_at) / Fold change /veh TMPRSS6 (11731388_a_at) / RFU KRTAP10-2 (11738614_at) / Fold change /veh KRTAP10-2 (11738614_at) / RFU ARHGAP8 /// PRR5-ARHGAP8 (11727945_x_at) / Fold change /veh ARHGAP8 /// PRR5-ARHGAP8 (11727945_x_at) / RFU KRTAP5-7 /// NADSYN1 (11734609_at) / Fold change /veh KRTAP5-7 /// NADSYN1 (11734609_at) / RFU RASL12 (11751679_a_at) / Fold change /veh RASL12 (11751679_a_at) / RFU CDKN2B (11736163_a_at) / Fold change /veh CDKN2B (11736163_a_at) / RFU PRF1 (11729649_at) / Fold change /veh PRF1 (11729649_at) / RFU, ZNF638 /// ZNF638-IT1 / Fold change vs veh, ZNF638 /// ZNF638-IT1 / RFU, PANK3 / Fold change vs veh, PANK3 / RFU, SH3YL1 / Fold change vs veh, SH3YL1 / RFU, ZEB2 / Fold change vs veh, ZEB2 / RFU, NRIP1 / Fold change vs veh, NRIP1 / RFU, PTTG1IP / Fold change vs veh, PTTG1IP / RFU, CAPN2 / Fold change vs veh, CAPN2 / RFU, MED14 / Fold change vs veh, MED14 / RFU, SNORA58 / Fold change vs veh, SNORA58 / RFU, C1orf63 / Fold change vs veh, C1orf63 / RFU, LRRFIP1 / Fold change vs veh, LRRFIP1 / RFU, NDUFAF7 / Fold change vs veh, NDUFAF7 / RFU, SLC12A2 / Fold change vs veh, SLC12A2 / RFU, IBTK / Fold change vs veh, IBTK / RFU, ESF1 / Fold change vs veh, ESF1 / Fold change vs veh, TMEM50B / RFU, TAOK1 / Fold change vs veh, TAOK1 / RFU, ACBD3 / Fold change vs veh, ACBD3 / RFU, TMA16 / Fold change vs veh, TMA16 / RFU, RWDD3 / Fold change vs veh, RWDD3 / RFU, BCAT1 / Fold change vs veh, BCAT1 / RFU, EDEM3 / Fold change vs veh, EDEM3 / RFU, TMEM33 / Fold change vs veh, TMEM33 / RFU, WDR75 / Fold change vs veh, WDR75 / RFU, AHCTF1 / Fold change vs veh, AHCTF1 / RFU, TFRC / Fold change vs veh, TFRC / RFU, ZDHHC17 / Fold change vs veh, ZDHHC17 / RFU, NOM1 / Fold change vs veh, NOM1 / RFU, ARL8B / Fold change vs veh, ARL8B / RFU, ZBTB11 / Fold change vs veh, ZBTB11 / RFU, TAMM41 / Fold change vs veh, TAMM41 / RFU, KIAA1704 /// LOC100996395 / Fold change vs veh, KIAA1704 /// LOC100996395 / RFU, ING1 / Fold change vs veh, ING1 / RFU, TRMT61B / Fold change vs veh, TRMT61B / RFU, FUBP3 / Fold change vs veh, FUBP3 / RFU, TP53 / Fold change vs veh, TP53 / RFU, TNKS2 / Fold change vs veh, TNKS2 / RFU, ZFP14 / Fold change vs veh, ZFP14 / RFU, ACTR2 / Fold change vs veh, ACTR2 / RFU, PPP3R1 / Fold change vs veh, PPP3R1 / RFU, PIK3R1 / Fold change vs veh, PIK3R1 / RFU, HNRNPA1 / Fold change vs veh, HNRNPA1 / RFU, RNF170 / Fold change vs veh, RNF170 / RFU, ZNF28 / Fold change vs veh, ZNF28 / RFU, RNGTT / Fold change vs veh, RNGTT / RFU, OGT / Fold change vs veh, OGT / RFU, BRD1 / Fold change vs veh, BRD1 / RFU, MARS / Fold change vs veh, MARS / RFU, ZNF655 / Fold change vs veh, ZNF655 / RFU, FAHD1 / Fold change vs veh, FAHD1 / RFU, BDP1 / Fold change vs veh, BDP1 / RFU, LRRCC1 / Fold change vs veh, LRRCC1 / RFU, ARID1A / Fold change vs veh, ARID1A / RFU, ZNF146 / Fold change vs veh, ZNF146 / RFU, ZNF330 / Fold change vs veh, ZNF330 / RFU, GPN3 / Fold change vs veh, GPN3 / RFU, C9orf123 / Fold change vs veh, C9orf123 / RFU, N4BP2L2 / Fold change vs veh, N4BP2L2 / RFU, ARFIP1 / Fold change vs veh, ARFIP1 / RFU, FAM179B / Fold change vs veh, FAM179B / RFU, BCL10 / Fold change vs veh, BCL10 / RFU, UHRF1BP1L / Fold change vs veh, UHRF1BP1L / RFU, BET1 / Fold change vs veh, BET1 / RFU, CNOT2 / Fold change vs veh, CNOT2 / RFU, ZNF268 / Fold change vs veh, ZNF268 / Fold change vs veh, ZNF507 / RFU, DGCR2 / Fold change vs veh, DGCR2 / RFU, WDSUB1 / Fold change vs veh, WDSUB1 / Fold change vs veh, HSP90B1 /// MIR3652 / RFU, ADSS / Fold change vs veh, ADSS / RFU, GK / Fold change vs veh, GK / RFU, ZNF148 / Fold change vs veh, ZNF148 / RFU, TAF9 / Fold change vs veh, TAF9 / RFU, SLC1A5 / Fold change vs veh, SLC1A5 / RFU, SLMO2 / Fold change vs veh, SLMO2 / RFU, ABCC4 / Fold change vs veh, ABCC4 / RFU, LOC101060439 /// RAP1B / Fold change vs veh, LOC101060439 /// RAP1B / RFU, RFX7 / Fold change vs veh, RFX7 / RFU, GTPBP10 / Fold change vs veh, GTPBP10 / RFU, CNEP1R1 / Fold change vs veh, CNEP1R1 / RFU, BIVM-ERCC5 /// ERCC5 / Fold change vs veh, BIVM-ERCC5 /// ERCC5 / RFU, ILF3 / Fold change vs veh, ILF3 / RFU 11762660_at / Fold change /veh 11762660_at / RFU VCAN (11757783_s_at) / Fold change /veh VCAN (11757783_s_at) / RFU DDX43 (11728927_at) / Fold change /veh DDX43 (11728927_at) / RFU KRT8 (11758188_x_at) / Fold change /veh KRT8 (11758188_x_at) / RFU NKD1 (11759106_at) / Fold change /veh NKD1 (11759106_at) / RFU SRD5A1 (11742802_a_at) / Fold change /veh SRD5A1 (11742802_a_at) / RFU TPSAB1 /// TPSB2 (11721975_s_at) / Fold change /veh TPSAB1 /// TPSB2 (11721975_s_at) / RFU GSTM3 (11746129_a_at) / Fold change /veh GSTM3 (11746129_a_at) / RFU IL23R (11737362_x_at) / Fold change /veh IL23R (11737362_x_at) / RFU TMEM51 (11727254_a_at) / Fold change /veh TMEM51 (11727254_a_at) / RFU PIWIL2 (11732686_x_at) / Fold change /veh PIWIL2 (11732686_x_at) / RFU ORM1 (11744905_x_at) / Fold change /veh ORM1 (11744905_x_at) / RFU CCDC152 (11743942_at) / Fold change /veh CCDC152 (11743942_at) / RFU ECM1 (11717891_a_at) / Fold change /veh ECM1 (11717891_a_at) / RFU IL23R (11748794_a_at) / Fold change /veh IL23R (11748794_a_at) / RFU TNFAIP8L3 (11732012_x_at) / Fold change /veh TNFAIP8L3 (11732012_x_at) / RFU MBOAT4 (11741988_at) / Fold change /veh MBOAT4 (11741988_at) / RFU 11764193_at / Fold change /veh 11764193_at / RFU TMEM53 (11763286_at) / Fold change /veh TMEM53 (11763286_at) / RFU MAGEB2 (11727129_at) / Fold change /veh MAGEB2 (11727129_at) / RFU TMEM200A (11744735_a_at) / Fold change /veh TMEM200A (11744735_a_at) / RFU CCDC152 (11751479_a_at) / Fold change /veh CCDC152 (11751479_a_at) / RFU FAM211A (11726209_a_at) / Fold change /veh FAM211A (11726209_a_at) / RFU RGS16 (11746705_a_at) / Fold change /veh RGS16 (11746705_a_at) / RFU VCAN (11755009_s_at) / Fold change /veh VCAN (11755009_s_at) / RFU RHOB (11743442_s_at) / Fold change /veh RHOB (11743442_s_at) / RFU RGS16 (11720943_a_at) / Fold change /veh RGS16 (11720943_a_at) / RFU RGS16 (11720944_at) / Fold change /veh RGS16 (11720944_at) / RFU, VPS4B / Fold change vs veh, VPS4B / RFU, CREB1 / Fold change vs veh, CREB1 / RFU, DNAJC13 / Fold change vs veh, DNAJC13 / RFU, GNAQ / Fold change vs veh, GNAQ / RFU, CDK5R1 / Fold change vs veh, CDK5R1 / RFU, ZRANB3 / Fold change vs veh, ZRANB3 / RFU, CUL4A / Fold change vs veh, CUL4A / RFU, CCNY / Fold change vs veh, CCNY / RFU, UFL1 / Fold change vs veh, UFL1 / RFU, COG3 / Fold change vs veh, COG3 / RFU, DIAPH2 / Fold change vs veh, DIAPH2 / RFU, SKA2 / Fold change vs veh, SKA2 / RFU, AFF3 / Fold change vs veh, AFF3 / RFU, LMF1 / Fold change vs veh, LMF1 / RFU, IPO11 / Fold change vs veh, IPO11 / RFU, DFFB / Fold change vs veh, DFFB / RFU, FOXP1 / Fold change vs veh, FOXP1 / RFU, CARD8 / Fold change vs veh, CARD8 / RFU, STRN3 / Fold change vs veh, STRN3 / RFU, ADK / Fold change vs veh, ADK / RFU, RASSF2 / Fold change vs veh, RASSF2 / RFU, WIPF1 / Fold change vs veh, WIPF1 / RFU, LARP1B / Fold change vs veh, LARP1B / RFU, RASA1 / Fold change vs veh, RASA1 / RFU, RB1 / Fold change vs veh, RB1 / RFU, PPFIA1 / Fold change vs veh, PPFIA1 / RFU, MAT2A / Fold change vs veh, MAT2A / RFU, CCT5 / Fold change vs veh, CCT5 / RFU, WDR92 / Fold change vs veh, WDR92 / RFU, CUX1 / Fold change vs veh, CUX1 / RFU, TTC7A / Fold change vs veh, TTC7A / RFU, TMEM135 / Fold change vs veh, TMEM135 / RFU, DEPTOR / Fold change vs veh, DEPTOR / RFU, CPM / Fold change vs veh, CPM / RFU, DNAJB6 / Fold change vs veh, DNAJB6 / RFU, CACNA2D3 / Fold change vs veh, CACNA2D3 / RFU, DTX4 / Fold change vs veh, DTX4 / RFU, TFCP2 / Fold change vs veh, TFCP2 / RFU, GMCL1 /// GMCL1P1 / Fold change vs veh, GMCL1 /// GMCL1P1 / RFU, AEBP2 / Fold change vs veh, AEBP2 / RFU, SNHG1 /// SNORD22 /// SNORD25 /// SNORD26 /// SNORD27 /// SNORD28 /// SNORD29 /// SNORD31 / Fold change vs veh, SNHG1 /// SNORD22 /// SNORD25 /// SNORD26 /// SNORD27 /// SNORD28 /// SNORD29 /// SNORD31 / Fold change (Aza/veh), C12orf56 (ProbeSet 11735607_a_at) / Fold change (ACY-1035/veh), C12orf56 (ProbeSet 11735607_a_at) / Fold change (Aza/veh), FGFR1OP (ProbeSet 11751329_s_at) / Fold change (ACY-1035/veh), FGFR1OP (ProbeSet 11751329_s_at) / Fold change (Aza/veh), VPS36 (ProbeSet 11739960_a_at) / Fold change (ACY-1035/veh), VPS36 (ProbeSet 11739960_a_at) / RFU SYPL1 (11715823_x_at) / Fold change /veh SYPL1 (11715823_x_at) / RFU IGFBP7 (11715501_s_at) / Fold change /veh IGFBP7 (11715501_s_at) / RFU REEP3 (11722064_at) / Fold change /veh REEP3 (11722064_at) / RFU IGLL1 (11728026_x_at) / Fold change /veh IGLL1 (11728026_x_at): dose or concentration left out as unconfirmed
Settings: ProbeSet 11726661_s_at; LIST B

Nc1ncn([C@@H]2O[C@H](CO)[C@@H](O)[C@H]2O)c(=O)n1 [azacitidine]
RFU, GPN3: 248.57 RFU
